The target in test [1] is T1, somatostatin human receptor subtype (hsst) 2 (Homo sapiens, UniProt P30874).
T1 construct: expressed in transfected cells
As to the kind of experiment: In vitro binding affinity, transfected cell lines, hsst 2. To be noted: compared with compound 7 (Y-DOTA-TOC).

Test [2] has as its target T2, human somatostatin receptor subtype hsst3 (Homo sapiens, UniProt P32745). As to the kind of experiment: In vitro binding affinity, transfected cell lines, hsst 3. The arrangement: expressed in transfected cells. The conditions noted are these: compared with cpd. 6 (Y-DOTA-LAN).
In test [3] the target is human somatostatin receptor subtype hsst5 (Homo sapiens, UniProt P35346). As to the kind of experiment: In vitro binding affinity of peptide analogs (Table III), hsst5. The conditions noted are these: DOTA complexed with stable Y or In. On the procedure: (§1) IC50 values were determined as described by Reubi et al. (Eur J Nuc Med 28:836-846, 2001).
Test [4] deals with T2, human somatostatin receptor subtype hsst3. Briefly: In vitro binding affinity of peptide analogs (Table III), hsst3. To be noted: DOTA complexed with stable Y or In. On the procedure:
Table III, presents the binding affinity of the new compounds to human somatostatin receptor subtypes as compared to the compound, Y-DOTA-TATE, described by Srinivasan et al. (U.S. Pat. No. 5,830,431).
as §1

The structures appear in SMILES notation. Bridge positions count the residues as written; N and C are the ends. Square brackets hold non-standard residues; d marks the D form. Peptide text beside a SMILES is read from it. * marks the point of attachment. DOTA = O=C(O)CN1CCN(CC(=O)O)CCN(CC(=O)*)CCN(CC(=O)O)CC1; 1Nal = N[C@@H](Cc1cccc2ccccc12)C(=O)O; Bta = N[C@@H](Cc1csc2ccccc12)C(=O)O; Thr(ol) = C[C@@H](O)[C@H](N)CO

Usually IC50 stands for the concentration that gives 50% inhibition. A high value points to weaker potency in that assay.

T2 sequence (P32745 whole entry): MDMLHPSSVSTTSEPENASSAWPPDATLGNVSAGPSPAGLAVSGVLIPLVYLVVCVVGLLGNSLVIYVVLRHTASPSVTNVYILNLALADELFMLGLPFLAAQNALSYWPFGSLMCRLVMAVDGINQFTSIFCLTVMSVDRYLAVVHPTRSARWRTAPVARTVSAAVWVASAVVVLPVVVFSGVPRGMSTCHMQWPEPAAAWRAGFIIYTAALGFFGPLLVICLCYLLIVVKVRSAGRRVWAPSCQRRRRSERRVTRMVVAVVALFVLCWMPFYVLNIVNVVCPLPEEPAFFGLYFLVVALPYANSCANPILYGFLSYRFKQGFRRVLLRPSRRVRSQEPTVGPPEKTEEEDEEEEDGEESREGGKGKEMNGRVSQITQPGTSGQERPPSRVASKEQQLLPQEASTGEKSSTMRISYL
T1 sequence (P30874 whole entry): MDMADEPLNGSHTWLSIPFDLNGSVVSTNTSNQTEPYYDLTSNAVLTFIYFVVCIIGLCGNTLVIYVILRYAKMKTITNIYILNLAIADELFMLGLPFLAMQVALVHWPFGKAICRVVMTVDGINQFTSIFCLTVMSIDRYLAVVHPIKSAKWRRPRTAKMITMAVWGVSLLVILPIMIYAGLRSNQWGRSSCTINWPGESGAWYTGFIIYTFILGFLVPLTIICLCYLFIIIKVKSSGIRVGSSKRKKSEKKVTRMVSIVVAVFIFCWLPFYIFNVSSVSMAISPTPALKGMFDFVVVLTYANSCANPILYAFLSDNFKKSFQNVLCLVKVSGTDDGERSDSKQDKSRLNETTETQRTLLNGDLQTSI
human somatostatin receptor subtype hsst5, sequence (P35346 whole entry): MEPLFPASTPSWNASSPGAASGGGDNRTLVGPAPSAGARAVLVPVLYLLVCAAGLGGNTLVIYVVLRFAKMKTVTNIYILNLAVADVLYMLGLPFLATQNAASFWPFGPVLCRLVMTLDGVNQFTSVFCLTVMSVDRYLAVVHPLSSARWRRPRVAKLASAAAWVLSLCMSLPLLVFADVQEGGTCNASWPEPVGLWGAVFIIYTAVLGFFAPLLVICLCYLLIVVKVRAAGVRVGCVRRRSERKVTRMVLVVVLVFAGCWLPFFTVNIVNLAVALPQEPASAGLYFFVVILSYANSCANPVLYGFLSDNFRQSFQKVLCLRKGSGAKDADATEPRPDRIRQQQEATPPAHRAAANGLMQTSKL

With `C[C@@H](O)[C@@H]1NC(=O)[C@H](CCCCN)NC(=O)[C@@H](Cc2c[nH]c3ccccc23)NC(=O)[C@H](Cc2csc3ccccc23)NC(=O)[C@@H](NC(=O)[C@@H](Cc2ccccc2)NC(=O)CN2CCN(CC(=O)O)CCN(CC(=O)O)CCN(CC(=O)O)CC2)CSSC[C@@H](C(=O)N[C@H](CO)[C@@H](C)O)NC1=O` [cpd. 9, ^90Y-labelled DOTA-(D)Phe-cyclo[Cys-(D)3-benzothienylalanyl-(D)Trp-Lys-Thr-Cys]-Thr-ol, metal not drawn] ({DOTA}-[dF]C[Bta][dW]KTC[Thr(ol)]; disulfide 2-7), in test [1], the “binding affinity to sst 2 relative to compound 7” value is recorded as “approx. three times better”.
On to `C[C@@H](O)[C@@H]1NC(=O)[C@H](CCCCN)NC(=O)[C@@H](Cc2c[nH]c3ccccc23)NC(=O)[C@H](Cc2cccc3ccccc23)NC(=O)[C@@H](NC(=O)[C@@H](Cc2ccccc2)NC(=O)CN2CCN(CC(=O)O)CCN(CC(=O)O)CCN(CC(=O)O)CC2)CSSC[C@@H](C(=O)N[C@H](CO)[C@@H](C)O)NC1=O` [cpd. 8, ^90Y-labelled DOTA-(D)Phe-cyclo[Cys-(D) 1-Nal-(D)Trp-Lys-Thr-Cys]-Thr-ol, metal not drawn] ({DOTA}-[dF]C[1Nal][dW]KTC[Thr(ol)]; disulfide 2-7), for which the “affinity to sst 3 relative to cpd. 6” value in test [2] is listed as “approx. five times better”. In test [1], the “binding affinity to sst 2 relative to compound 7” value is given as “approx. three times better”.
Regarding `C[C@@H](O)[C@H](NC(=O)[C@@H]1CSSC[C@H](NC(=O)[C@@H](Cc2ccccc2)NC(=O)CN2CCN(CC(=O)O)CCN(CC(=O)O)CCN(CC(=O)O)CC2)C(=O)N[C@@H](Cc2ccc(O)c(I)c2)C(=O)N[C@H](Cc2c[nH]c3ccccc23)C(=O)N[C@@H](CCCCN)C(=O)N[C@@H]([C@@H](C)O)C(=O)N1)C(=O)O` [compound 2], the results for the IC50 in test [3] and in test [4] were 65 nM and 170 nM, respectively.
